In patent publication US7196084B2, “Cdc25 phosphatase inhibitors” (Societe de Conseils de Recherches et d'Applications …, priority 2000, dated 2007) one finds IC50 and melting point data, which are given here for 15 molecules.

Structures can show the parent of a compound that is named as a salt. Some results are limits rather than exact numbers.

Data set [1] has as its system Mia-PaCa2 (human pancreatic cancer cells). The data set can be described thus: Anti-proliferative activity, WST1 colorimetric test, Mia-PaCa2. Format: cell-based. As to conditions: MIA PaCa-2, treated for 96 hours, read-out: IC50 on the cell proliferation of Mia-Paca2 lines. The protocol:
c) Characterization of the Anti-proliferative Activity:
By way of example, the effect of a treatment on two lines of human Mia-Paca2 and DU145 cells with compounds of Examples 1–5 described previously will be studied. The cell lines DU145 (human prostate cancer cells) and Mia-PaCa2 (human pancreatic cancer cells) were acquired from the American Tissue Culture Collection (Rockville, Md., USA). The cells placed in 80 μL of Dulbecco's modified Eagle medium (Gibco-Brl, Cergy-Pontoise, France) completed with 10% foetal calf serum inactivated by heating (Gibco-Brl, Cergy-Pontoise, France), 50000 units/l of penicillin and 50 mg/l streptomycin (Gibco-Brl, Cergy-Pontoise, France), and 2 mM of glutamine (Gibco-Brl, Cergy-Pontoise, France) were seeded on a 96-well plate on day 0. The cells were treated on day 1 for 96 hours with increasing concentrations of each of the compounds to be tested up to 50 μg/ml. At the end of this period, quantification of cell proliferation is evaluated by a colorimetric test based on the cleavage of the tetrazolium salt WST1 by mitochondrial dehydrogenases in viable cells leading to the formation of formazan (Boehringer Mannheim, Meylan, France). These tests are carried out in duplicate with 8 determinations per concentration tested. For each compound to be tested, the values included in the linear part of the sigmoid were retained for linear regression analysis and used to estimate the inhibitory concentration IC50. The products are solubilized in dimethylsulphoxide (DMSO) at 10^−2 M and finally used in culture with 0.5% DMSO.
In general terms: Tetrazolium assays rely on reduction of a dye to a coloured formazan, in cell work by metabolically active cells.

For the molecule `CN(CCc1ccc([N+](=O)[O-])cc1)Cc1cc(N(C)C)ccc1O` [Example 2, 4-(dimethylamino)-2-({methyl[2-(4-nitrophenyl)ethyl]amino}methyl)phenol], the IC50 in data set [1] is not above 100 µM.
With `CN(C)c1ccc(NC(=O)CCNCc2cccc(N=C(N)c3cccs3)c2)cc1` [Example 4, 3-[(3-{[amino(2-thienyl)methylidene]amino}-benzyl)amino]-N-[4-(dimethylamino)phenyl]propanamide hydrochloride], the IC50 in data set [1] is not above 100 µM.
Consider `CN1CCN(c2ccc(NC(=O)CCCc3ccc(N)cc3)cc2)CC1.Cl` [Example 5, 4-(4-aminophenyl)-N-[4-(4-methyl-1-piperazinyl)phenyl]butanamide hydrochloride], for which the melting point (in general, the temperature, or range, at which the solid turns liquid) lay in the range of 156 to 158 °C.
On to `COc1cc(N(C)C)cc(CNCCc2ccc([N+](=O)[O-])cc2)c1O` [Example 6, 4-(dimethylamino)-2-methoxy-6-({[2-(4-nitrophenyl)ethyl]amino}methyl)phenol], for which the IC50 in data set [1] was not above 100 µM.
Same read-out and setting: in the case of `CN(C)c1ccc(O)c(CNCCc2ccc([N+](=O)[O-])cc2)c1` [Example 7, 4-(dimethylamino)-2-({[2-(4-nitrophenyl)ethyl]amino}methyl)phenol] it was not above 100 µM; in that of `COc1cc(CN(C)CCc2ccc([N+](=O)[O-])cc2)cc(N(C)C)c1O` [Example 8, 2-(dimethylamino)-6-methoxy-4-({methyl[2-(4-nitrophenyl)ethyl]amino}methyl)phenol], not above 100 µM.
As to `CN(CCc1ccc([N+](=O)[O-])cc1)Cc1cc(O)ccc1O` [Example 9, 2-({methyl [2-(4-nitrophenyl)ethyl]amino}methyl)-1,4-benzenediol], the IC50 in data set [1] was not above 100 µM.
Still for that read-out and setting: in the case of `COc1cc(N(C)C)cc(CN(C)CCc2ccc([N+](=O)[O-])cc2)c1OC(C)=O` [Example 10, 4-(dimethylamino)-2-methoxy-6-({methyl[2-(4-nitrophenyl)ethyl]amino}methyl)phenyl acetate] it was not above 100 µM.
`O=C(NCCc1ccc([N+](=O)[O-])cc1)c1cc2cc(O)ccc2cc1O` [Example 11, 3,7-dihydroxy-N-[2-(4-nitrophenyl)ethyl]-2-naphthamide] came in with a melting point of more than 250 °C. For the same molecule, the IC50 in data set [1] is not above 100 µM.
For `CS(=O)(=O)Nc1ccc(CCNC(=O)c2cc3cc(O)ccc3cc2O)cc1` [Example 16, 3,7-dihydroxy-N-(2-{4-[(methylsulphonyl)amino]phenyl}ethyl)-2-naphthamide] the same measures were 176 to 178 °C and not above 100 µM.
Turning to `CCCCS(=O)(=O)Nc1ccc(CCNC(=O)c2cc3cc(O)ccc3cc2O)cc1` [Example 17, N-(2-{4-[(butylsulphonyl)amino]phenyl}ethyl)-3,7-dihydroxy-2-naphthamide], the melting point was in the range of 193 to 195 °C. Also, the IC50 in data set [1] was not above 100 µM.
On to `O=C(NCCc1ccc(NS(=O)(=O)c2ccc(F)cc2)cc1)c1cc2cc(O)ccc2cc1O` [Example 28, N-[2-(4-{[(4-fluorophenyl)sulphonyl]amino}phenyl)ethyl]-3,7-dihydroxy-2-naphthamide], for which the IC50 in data set [1] is not above 100 µM.
Still for that read-out and setting: in the case of `CC1CCN(S(=O)(=O)c2cccc(CNC(=O)c3cc4cc(O)ccc4cc3O)c2)CC1` [Example 29, 3,7-dihydroxy-N-{3-[(4-methyl-1-piperidinyl)sulphonyl]benzyl}-2-naphthamide] it was not above 100 µM.
For the molecule `CS(=O)(=O)N1CCN(C(=O)c2cc3cc(O)ccc3cc2O)CC1` [Example 32, 3-{[4-(methylsulphonyl)piperazin-1-yl]carbonyl}naphthalene-2,6-diol], the melting point fell in the range of 124 to 126 °C.
Molecule `CCCCS(=O)(=O)N1CCN(C(=O)c2cc3cc(O)ccc3cc2O)CC1` [Example 33, 3-{[4-(butylsulphonyl)piperazin-1-yl]carbonyl}naphthalene-2,6-diol] returned a melting point of 105 to 110 °C.
